Reference: paper PMC5762315, “Inhibition of polo-like kinase 4 (PLK4): a new therapeutic option for rhabdoid tumors and pediatric medulloblastoma” (Oncotarget, 2017)
Where “and” joins values, the source holds several entries; their conditions need not be identical. Identical values can stand only once.

Legend:
Assay in all cases: biochemical
Type in all cases: biochemical
[1] = biological target: various kinases (Homo sapiens, UniProt O75676); conditions: kinase RPS6KA4 (MSK2); ZLYTE
[2] = biological target: various kinases (Homo sapiens, UniProt Q16816); conditions: PHKG1
[3] = biological target: various kinases (Homo sapiens, UniProt P11309); conditions: PIM1
Sequence of various kinases (Homo sapiens, UniProt P11309) (P11309 whole entry): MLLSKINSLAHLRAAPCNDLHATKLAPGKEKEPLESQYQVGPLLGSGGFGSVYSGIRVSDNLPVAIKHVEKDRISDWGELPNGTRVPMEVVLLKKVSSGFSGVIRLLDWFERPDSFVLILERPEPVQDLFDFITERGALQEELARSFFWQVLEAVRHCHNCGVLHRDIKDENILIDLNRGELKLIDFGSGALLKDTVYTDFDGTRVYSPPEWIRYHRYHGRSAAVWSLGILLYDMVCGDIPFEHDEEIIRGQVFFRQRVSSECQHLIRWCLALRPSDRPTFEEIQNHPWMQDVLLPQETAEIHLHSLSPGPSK

[4] = biological target: T1, various kinases (Homo sapiens, UniProt Q9UL54); conditions: kinase TAOK2 (TAO1); ZLYTE
T1 sequence (Q9UL54 1-1235): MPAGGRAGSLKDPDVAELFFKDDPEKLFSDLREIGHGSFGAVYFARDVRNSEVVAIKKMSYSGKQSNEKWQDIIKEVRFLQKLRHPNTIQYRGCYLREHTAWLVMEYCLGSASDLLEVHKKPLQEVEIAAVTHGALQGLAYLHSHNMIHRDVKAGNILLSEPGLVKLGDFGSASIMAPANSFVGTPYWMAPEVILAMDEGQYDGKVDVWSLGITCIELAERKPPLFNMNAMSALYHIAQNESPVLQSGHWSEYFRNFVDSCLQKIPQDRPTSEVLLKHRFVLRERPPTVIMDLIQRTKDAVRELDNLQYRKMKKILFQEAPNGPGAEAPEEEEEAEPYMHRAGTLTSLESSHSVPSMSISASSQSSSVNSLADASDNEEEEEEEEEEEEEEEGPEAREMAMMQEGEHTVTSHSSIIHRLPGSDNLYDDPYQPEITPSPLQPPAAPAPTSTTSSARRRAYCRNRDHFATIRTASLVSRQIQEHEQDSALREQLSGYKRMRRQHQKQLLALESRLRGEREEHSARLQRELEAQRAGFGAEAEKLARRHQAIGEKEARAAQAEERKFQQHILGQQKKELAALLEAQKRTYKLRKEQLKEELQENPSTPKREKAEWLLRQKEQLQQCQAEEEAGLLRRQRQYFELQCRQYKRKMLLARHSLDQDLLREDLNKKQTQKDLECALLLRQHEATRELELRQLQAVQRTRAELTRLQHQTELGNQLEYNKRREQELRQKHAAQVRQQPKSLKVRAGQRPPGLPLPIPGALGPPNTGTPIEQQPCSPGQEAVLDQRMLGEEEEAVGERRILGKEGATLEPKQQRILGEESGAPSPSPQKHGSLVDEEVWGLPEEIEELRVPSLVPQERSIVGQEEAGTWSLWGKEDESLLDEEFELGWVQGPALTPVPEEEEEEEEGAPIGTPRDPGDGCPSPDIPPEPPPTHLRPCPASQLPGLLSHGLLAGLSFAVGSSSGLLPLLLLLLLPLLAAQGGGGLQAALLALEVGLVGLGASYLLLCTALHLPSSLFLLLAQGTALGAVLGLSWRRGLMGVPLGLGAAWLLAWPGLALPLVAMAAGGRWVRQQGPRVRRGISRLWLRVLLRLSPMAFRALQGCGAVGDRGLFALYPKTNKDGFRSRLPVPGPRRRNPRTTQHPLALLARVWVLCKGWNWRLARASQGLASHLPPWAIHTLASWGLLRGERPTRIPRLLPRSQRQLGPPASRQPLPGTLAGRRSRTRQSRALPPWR

[5] = biological target: various kinases (Homo sapiens, UniProt P15056, V600E); conditions: BRAF V599E
[6] = biological target: various kinases (Homo sapiens, UniProt Q16539)
Sequence of various kinases (Homo sapiens, UniProt Q16539) (Q16539 whole entry): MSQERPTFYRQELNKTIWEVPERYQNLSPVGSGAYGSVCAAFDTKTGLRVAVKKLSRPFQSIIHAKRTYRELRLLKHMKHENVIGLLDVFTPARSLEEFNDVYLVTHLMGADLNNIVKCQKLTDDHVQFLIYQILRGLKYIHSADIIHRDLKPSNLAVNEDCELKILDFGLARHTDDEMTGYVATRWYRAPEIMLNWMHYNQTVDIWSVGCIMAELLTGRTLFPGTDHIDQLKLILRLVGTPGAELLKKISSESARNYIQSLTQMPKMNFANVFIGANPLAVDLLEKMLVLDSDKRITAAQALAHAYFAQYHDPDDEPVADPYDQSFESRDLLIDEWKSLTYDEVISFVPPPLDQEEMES

[7] = biological target: T2, various kinases (Homo sapiens, UniProt Q13237); conditions: kinase PRKG2 (PKG2); ZLYTE
T2 sequence (Q13237 1-762): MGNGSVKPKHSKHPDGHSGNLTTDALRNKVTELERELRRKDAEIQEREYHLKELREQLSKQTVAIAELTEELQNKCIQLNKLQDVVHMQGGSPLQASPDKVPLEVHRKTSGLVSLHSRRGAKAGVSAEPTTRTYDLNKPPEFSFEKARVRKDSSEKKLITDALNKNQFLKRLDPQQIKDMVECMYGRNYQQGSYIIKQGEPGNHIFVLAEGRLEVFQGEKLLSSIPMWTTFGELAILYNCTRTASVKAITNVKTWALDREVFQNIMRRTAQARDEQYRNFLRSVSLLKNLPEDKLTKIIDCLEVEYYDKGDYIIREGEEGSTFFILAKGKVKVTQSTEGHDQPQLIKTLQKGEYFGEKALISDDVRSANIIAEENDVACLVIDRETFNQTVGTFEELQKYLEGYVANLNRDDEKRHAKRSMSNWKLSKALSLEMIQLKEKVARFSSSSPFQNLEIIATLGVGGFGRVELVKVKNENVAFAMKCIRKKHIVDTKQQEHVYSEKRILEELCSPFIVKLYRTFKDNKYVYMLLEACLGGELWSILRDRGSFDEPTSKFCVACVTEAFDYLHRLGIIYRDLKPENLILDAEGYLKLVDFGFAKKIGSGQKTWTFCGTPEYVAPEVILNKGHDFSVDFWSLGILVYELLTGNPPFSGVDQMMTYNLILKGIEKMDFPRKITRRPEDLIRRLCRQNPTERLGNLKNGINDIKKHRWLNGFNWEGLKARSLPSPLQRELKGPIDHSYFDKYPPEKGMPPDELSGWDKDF

[8] = biological target: various kinases (Homo sapiens, UniProt P23458); conditions: JAK1
Sequence of various kinases (Homo sapiens, UniProt P23458) (P23458 whole entry): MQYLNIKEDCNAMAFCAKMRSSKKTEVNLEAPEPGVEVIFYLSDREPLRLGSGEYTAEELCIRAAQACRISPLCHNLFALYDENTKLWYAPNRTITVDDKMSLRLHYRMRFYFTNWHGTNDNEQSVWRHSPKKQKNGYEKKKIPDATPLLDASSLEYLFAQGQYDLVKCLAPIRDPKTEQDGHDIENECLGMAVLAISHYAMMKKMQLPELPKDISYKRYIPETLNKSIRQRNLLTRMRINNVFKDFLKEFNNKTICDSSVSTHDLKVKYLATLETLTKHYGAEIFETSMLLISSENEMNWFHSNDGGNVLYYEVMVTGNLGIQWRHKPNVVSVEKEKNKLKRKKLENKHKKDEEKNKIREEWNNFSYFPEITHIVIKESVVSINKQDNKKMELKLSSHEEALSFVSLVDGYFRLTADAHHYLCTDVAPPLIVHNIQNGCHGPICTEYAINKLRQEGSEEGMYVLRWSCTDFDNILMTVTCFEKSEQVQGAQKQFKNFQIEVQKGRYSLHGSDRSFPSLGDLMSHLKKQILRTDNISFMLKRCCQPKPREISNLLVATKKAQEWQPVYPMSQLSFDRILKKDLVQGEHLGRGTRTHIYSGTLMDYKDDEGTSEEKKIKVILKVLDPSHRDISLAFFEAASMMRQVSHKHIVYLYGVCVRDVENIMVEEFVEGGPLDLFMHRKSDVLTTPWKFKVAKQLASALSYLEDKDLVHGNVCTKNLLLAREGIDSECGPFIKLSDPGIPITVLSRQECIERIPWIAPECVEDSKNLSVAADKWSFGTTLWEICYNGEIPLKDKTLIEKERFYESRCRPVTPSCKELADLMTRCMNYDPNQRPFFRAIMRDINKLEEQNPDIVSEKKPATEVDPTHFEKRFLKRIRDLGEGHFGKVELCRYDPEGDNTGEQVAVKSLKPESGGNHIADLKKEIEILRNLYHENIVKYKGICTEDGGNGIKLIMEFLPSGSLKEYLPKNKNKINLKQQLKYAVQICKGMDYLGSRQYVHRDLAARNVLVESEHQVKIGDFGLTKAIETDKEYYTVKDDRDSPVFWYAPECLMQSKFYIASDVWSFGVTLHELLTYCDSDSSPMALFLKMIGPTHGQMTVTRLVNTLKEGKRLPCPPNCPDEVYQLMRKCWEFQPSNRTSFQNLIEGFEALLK

[9] = biological target: various kinases (Homo sapiens, UniProt P12931); conditions: kinase SRC; ZLYTE
Sequence of various kinases (Homo sapiens, UniProt P12931) (P12931 whole entry): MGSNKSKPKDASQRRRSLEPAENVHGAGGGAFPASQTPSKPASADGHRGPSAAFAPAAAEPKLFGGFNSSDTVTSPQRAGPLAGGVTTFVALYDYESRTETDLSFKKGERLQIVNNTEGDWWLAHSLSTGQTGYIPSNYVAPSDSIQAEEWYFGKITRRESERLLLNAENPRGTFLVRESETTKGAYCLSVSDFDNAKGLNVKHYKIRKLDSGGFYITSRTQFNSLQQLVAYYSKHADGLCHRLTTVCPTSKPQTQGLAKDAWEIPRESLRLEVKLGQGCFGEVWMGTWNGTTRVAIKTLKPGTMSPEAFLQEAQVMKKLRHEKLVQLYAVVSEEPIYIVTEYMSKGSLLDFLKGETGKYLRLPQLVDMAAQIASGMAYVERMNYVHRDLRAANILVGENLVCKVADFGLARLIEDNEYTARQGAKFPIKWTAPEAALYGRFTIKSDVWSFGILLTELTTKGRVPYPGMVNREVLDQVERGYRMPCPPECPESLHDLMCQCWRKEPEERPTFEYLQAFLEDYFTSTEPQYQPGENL

[10] = biological target: various kinases (Homo sapiens, UniProt Q9UK32); conditions: kinase RPS6KA6 (RSK4); ZLYTE
Sequence of various kinases (Homo sapiens, UniProt Q9UK32) (Q9UK32 whole entry): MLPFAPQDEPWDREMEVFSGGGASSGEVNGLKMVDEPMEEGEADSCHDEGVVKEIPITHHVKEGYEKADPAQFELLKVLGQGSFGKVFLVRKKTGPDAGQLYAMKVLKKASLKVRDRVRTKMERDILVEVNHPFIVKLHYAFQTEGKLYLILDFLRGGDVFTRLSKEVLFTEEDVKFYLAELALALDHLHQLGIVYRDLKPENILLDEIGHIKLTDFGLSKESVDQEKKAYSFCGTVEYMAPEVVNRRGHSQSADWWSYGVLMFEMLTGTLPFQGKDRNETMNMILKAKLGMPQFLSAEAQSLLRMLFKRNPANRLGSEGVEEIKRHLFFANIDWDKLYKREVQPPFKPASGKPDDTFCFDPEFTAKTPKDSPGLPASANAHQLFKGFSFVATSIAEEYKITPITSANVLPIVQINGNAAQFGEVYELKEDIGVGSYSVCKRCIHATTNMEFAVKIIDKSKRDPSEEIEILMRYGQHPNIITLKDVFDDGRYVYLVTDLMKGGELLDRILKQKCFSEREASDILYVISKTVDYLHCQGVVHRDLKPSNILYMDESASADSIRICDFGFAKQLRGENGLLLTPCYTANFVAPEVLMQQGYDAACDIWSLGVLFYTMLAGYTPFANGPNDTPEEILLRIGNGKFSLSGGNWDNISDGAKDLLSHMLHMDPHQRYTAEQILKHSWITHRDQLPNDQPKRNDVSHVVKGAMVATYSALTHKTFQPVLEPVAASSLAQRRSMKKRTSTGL

[11] = biological target: various kinases (Homo sapiens, UniProt P78527); conditions: DNA-PK
[12] = biological target: various kinases (Homo sapiens, UniProt P42679); conditions: MATK (HYL)
[13] = biological target: various kinases (Homo sapiens, UniProt P54756); conditions: EPHA5
Sequence of various kinases (Homo sapiens, UniProt P54756) (P54756 25-1037): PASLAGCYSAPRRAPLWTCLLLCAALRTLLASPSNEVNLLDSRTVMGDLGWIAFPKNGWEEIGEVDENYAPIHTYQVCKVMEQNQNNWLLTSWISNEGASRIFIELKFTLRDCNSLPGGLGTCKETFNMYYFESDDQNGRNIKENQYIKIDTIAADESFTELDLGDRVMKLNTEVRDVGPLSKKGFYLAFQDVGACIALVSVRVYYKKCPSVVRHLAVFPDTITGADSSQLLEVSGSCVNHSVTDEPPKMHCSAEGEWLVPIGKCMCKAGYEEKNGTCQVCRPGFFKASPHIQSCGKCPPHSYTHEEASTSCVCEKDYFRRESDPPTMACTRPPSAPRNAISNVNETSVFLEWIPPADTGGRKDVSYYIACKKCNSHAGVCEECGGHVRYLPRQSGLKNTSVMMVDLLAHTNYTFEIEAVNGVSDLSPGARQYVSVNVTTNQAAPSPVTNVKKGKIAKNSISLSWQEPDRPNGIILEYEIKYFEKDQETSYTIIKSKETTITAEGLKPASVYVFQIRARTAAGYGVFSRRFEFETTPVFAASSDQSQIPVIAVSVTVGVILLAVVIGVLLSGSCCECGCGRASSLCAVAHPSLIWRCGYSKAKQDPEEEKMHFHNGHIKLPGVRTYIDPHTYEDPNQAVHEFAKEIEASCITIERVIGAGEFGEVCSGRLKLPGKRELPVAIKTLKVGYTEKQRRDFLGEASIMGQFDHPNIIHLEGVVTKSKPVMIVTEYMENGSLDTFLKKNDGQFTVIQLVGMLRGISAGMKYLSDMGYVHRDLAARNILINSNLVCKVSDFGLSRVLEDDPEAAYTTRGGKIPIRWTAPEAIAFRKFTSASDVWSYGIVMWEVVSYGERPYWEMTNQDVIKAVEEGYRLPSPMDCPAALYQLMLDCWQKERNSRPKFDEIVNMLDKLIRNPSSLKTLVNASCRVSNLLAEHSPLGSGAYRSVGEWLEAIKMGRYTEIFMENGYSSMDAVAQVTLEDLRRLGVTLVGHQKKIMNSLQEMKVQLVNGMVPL

Sequence of various kinases (Homo sapiens, UniProt O75676) (O75676 whole entry): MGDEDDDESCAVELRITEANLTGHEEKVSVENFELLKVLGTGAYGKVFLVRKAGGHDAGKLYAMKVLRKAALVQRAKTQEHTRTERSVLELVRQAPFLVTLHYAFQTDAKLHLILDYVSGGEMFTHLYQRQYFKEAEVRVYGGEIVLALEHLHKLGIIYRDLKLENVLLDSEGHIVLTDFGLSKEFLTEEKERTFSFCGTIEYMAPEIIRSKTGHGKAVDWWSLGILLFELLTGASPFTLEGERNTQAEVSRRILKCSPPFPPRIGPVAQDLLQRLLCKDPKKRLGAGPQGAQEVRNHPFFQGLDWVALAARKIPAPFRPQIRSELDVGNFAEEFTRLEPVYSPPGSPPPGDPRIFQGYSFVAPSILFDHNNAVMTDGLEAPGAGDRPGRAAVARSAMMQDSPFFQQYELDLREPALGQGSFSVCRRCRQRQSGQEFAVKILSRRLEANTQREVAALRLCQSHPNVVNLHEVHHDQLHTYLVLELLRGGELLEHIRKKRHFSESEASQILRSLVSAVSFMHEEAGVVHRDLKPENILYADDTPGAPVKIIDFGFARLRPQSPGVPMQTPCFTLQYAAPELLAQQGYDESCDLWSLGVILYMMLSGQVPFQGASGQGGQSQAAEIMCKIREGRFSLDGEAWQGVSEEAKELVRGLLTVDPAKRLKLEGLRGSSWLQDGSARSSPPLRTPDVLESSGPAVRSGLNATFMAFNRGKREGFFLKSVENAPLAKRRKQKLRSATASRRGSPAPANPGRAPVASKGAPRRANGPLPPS

## COc1ccc2c(c1)[C@]1(C[C@H]1c1ccc3c(/C=C/c4ccc(CN5C[C@@H](C)O[C@@H](C)C5)cc4)n[nH]c3c1)C(=O)N2 [CFI-400945]
[1]
  % Inhibition Average: 0%
  % Inhibition Duplicate #1: -2%
  % Inhibition Duplicate #2: 3%
[2]
  % Inhibition: 10% and 7%
[3]
  % Inhibition: 2% and 3%
[4]
  % Inhibition Average: 4%
  % Inhibition Duplicate #1: 3%
  % Inhibition Duplicate #2: 5%
[5]
  % Inhibition: 12%
[6]; MAPK14 (p38 alpha)
  % Inhibition: 8% and 0%
[6]; MAPK14 (p38 alpha) Direct
  % Inhibition: 11%
[7]
  % Inhibition Average: 1%
  % Inhibition Duplicate #1: 2%
  % Inhibition Duplicate #2: 0%
[8]
  % Inhibition: 1% and 0%
[9]
  % Inhibition Average: 13%
  % Inhibition Duplicate #1: 13%
  % Inhibition Duplicate #2: 13%
[10]
  % Inhibition Average: 4%
  % Inhibition Duplicate #1: 6%
  % Inhibition Duplicate #2: 3%
[11]
  % Inhibition: 3% and 1%
[12]
  % Inhibition: 6% and 4%
[13]
  % Inhibition: 8% and 5%
